Reference: patent US8907076B2, “Mycobacterial peptide deformylase” (Council of Scientific and Industrial Research, priority 2006, dated 2014)

Target: mPDF (Mycobacterium tuberculosis peptide deformylase) (Mycobacterium tuberculosis, UniProt P9WIJ3)
Details: 500 mM, pre-incubation up to 2 h at 30° C., 70 ng protein/reaction
Protocol: The ability of mPDF to deformylate methionine was assessed in a spectrophotometric assay following the method described by Groche et al (Groche et al., Biochem. Biophys. Res. Commun. 246 342-346 1998) with slight modification. The assay was carried out in 50 μl reaction volume mPDF protein (usually 70 ng) in 1× assay buffer (100 mM phosphate buffer, pH 7.4 containing 100 μg/ml catalase) was incubated with the substrate (0 to 80 mM of N-formyl-Met-Ala, Sigma, USA) at 30° C. for 30 min. The reaction was terminated by addition of 50 μl of 4% HClO4 and further incubated (37° C. for 2 h) with TNBSA reagent (0.01% in 0.1M NaHCO3 buffer, pH 8.4). Following addition of 10% SDS (250 μl) and 1N HCl (125 μl), the highly chromogenic derivative generated due to reaction of primary amine with TNBSA was measured at 335 nm (Hermanson G, Bioconjugate techniques, Academic press, San Diego, Calif., 1996, pp, 112-113). The values obtained were corrected by subtracting the blank (all ingredients except mPDF enzyme) readings. Standard curves were prepared with known amounts (0-42.8 nmoles) of methionine.

Sequence of mPDF (Mycobacterium tuberculosis peptide deformylase) (P9WIJ3 whole entry): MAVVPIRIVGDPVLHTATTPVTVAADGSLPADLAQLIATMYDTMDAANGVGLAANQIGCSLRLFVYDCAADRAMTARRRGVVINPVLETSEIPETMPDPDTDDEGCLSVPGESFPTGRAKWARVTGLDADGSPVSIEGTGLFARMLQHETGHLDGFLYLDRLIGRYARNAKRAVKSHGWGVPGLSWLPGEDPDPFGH

OO [H2O2, hydrogen peroxide]
effect on the deformylating ability of mPDF compared to the untreated control: did not show any significant effect
